Reference: article PMC10974533, “Cationicity Enhancement on the Hydrophilic Face of Ctriporin Significantly Reduces Its Hemolytic Activity and Improves the Antimicrobial Activity against Antibiotic-Resistant ESKAPE Pathogens” (Toxins, 2024)
Where a SMILES comes first, the peptide text is derived from it.

Columns and labels:
[1] = tested on: carbapenem-resistant (CRE) A. baumannii; conditions: cited from earlier work
Source text: A wealth of CαAMPs have been identified from the venom glands of various scorpion species. Among these peptides, the members of short cationic AMP family are a group of cationic α-helical peptides with 17 to 19 residues, including Ctriporin [17], Mucroporin [18], Imcroporin [19], Stigmurin [20], TsAP-1 and TsAP-2 [21], AamAP1 and AamAP2 [22], and BmKb1 and BmKb2 [23]. Some peptides from this family were reported to show antimicrobial activity against methicillin-resistant S. aureus. We identified Lausporin-2 from the venom of Liocheles au ...

[2] = tested on: human red blood cells (hRBC); assay: Hemolytic activity determination; type: cell-based; conditions: 256 μg/mL peptide, 2% (v/v) hRBC, 37 °C, 1 h, OD540, 1% Triton X-100 = 100%; average ± standard error of three independent experiments
Description: Figure 2 Hemolytic activities of Ctriporin and its analogs against human red blood cells (hRBC). Hemolytic activities of Ctriporin (solid circle), CM1 (open circle), CM2 (open square), CM3 (upward triangle), CM4 (downward triangle), CM5 (half solid circle), CM6 (half solid square), and CM7 (half solid triangle), were measured against 2% (v/v) human red blood cells. The peptide concentrations are 0, 2, 4, 8, 16, 32, 64, 128, 256, and 512 μg/mL. The cells treated with 1% Triton X-100 were treated as 100% hemolysis. All experiments were repeated three times, and the data shown are the average ± standard error.
The hemolytic activities of the peptides were determined against human red blood cells (hRBCs). As described, sodium citrate-anticoagulated hRBCs were washed three times with 0.9% sodium chloride and diluted to a final concentration of 4% (v/v). Then, an equal volume of hRBC solutions was mixed with an equal volume of each peptide in a series of concentrations (0, 2, 4, 8, 16, 32, 64, 128, 256, and 512 μg/mL). After co-incubation at 37 °C for 1 h, the degree of hemolysis of the peptides was determined by detecting the release of hemoglobin from the damaged hRBCs by measuring the optical density at 540 nm (OD540). hRBCs in 0.9% sodium chloride and 1% Triton X-100 were considered 0% and 100% hemolysis, respectively. The results shown are the average ± standard error of data derived from three independent experiments. The percent hemolysis was calculated according to the following equation [53, 54]:Hemolysis (%) = 100 × (Asample − Ablank)/(Apositive − Ablank)

A. baumannii 19462 = assay: MIC, broth dilution, clinical isolate; type: cell-based; conditions: CRE/MDR clinical isolate
Description: (§1) The standard strains, including S. aureus ATCC29213 and ATCC25923, E. faecalis ATCC29212, E. coli ATCC25922 and ATCC35218, A. baumannii ATCC19606, K. pneumoniae ATCC700603, and P. aeruginosa ATCC27853, were purchased from the China Center of Type Culture Collection (CCTCC). The clinical strains of the ESKAPE pathogens were isolated from the affiliated hospitals of Hubei University of Medicine. All of them were stored at −80 °C before use. The drug sensitivities of the clinical strains were determined by the Kirby–Bauer test.
(§2) The MICs were determined using the broth dilution method according to the guidelines of the Clinical and Laboratory Standards Institute (CLSI), as described in the previous studies. Briefly, the bacterial cells were incubated in Mueller–Hinton broth (MHB, Oxoid, Basingstoke, UK) at 37 °C and 150 rpm to the mid-growth phase and diluted to achieve a final concentration of 5 × 10^5 colony-forming units per milliliter (CFU/mL). Then, the cells were mixed with each peptide in different concentrations (1, 2, 4, 8, 16, 32, and 64 μg/mL). […] All experiments were repeated at least three times.

S. aureus 891 = assay: MIC, broth dilution, clinical isolate; type: cell-based; conditions: MRSA clinical isolate
Description: as §1, §2

S. epidermidis 9092 = assay: MIC, broth dilution, clinical isolate; type: cell-based; conditions: MRSE clinical isolate
Description: as §1, §2

E. faecium 898 = assay: MIC, broth dilution, clinical isolate; type: cell-based; conditions: MDR clinical isolate
Description: as §1, §2

E. coli 2687 = assay: MIC, broth dilution, clinical isolate; type: cell-based; conditions: ESBL clinical isolate
Description: as §1, §2

S. aureus 9124 = assay: MIC, broth dilution, clinical isolate; type: cell-based; conditions: MRSA clinical isolate
Description: as §1, §2

P. aeruginosa 9014 = assay: MIC, broth dilution, clinical isolate; type: cell-based; conditions: CRE/MDR clinical isolate
Description: as §1, §2

A. baumannii 19295 = assay: MIC, broth dilution, clinical isolate; type: cell-based; conditions: CRE/MDR clinical isolate
Description: as §1, §2

S. epidermidis 6943 = assay: MIC, broth dilution, clinical isolate; type: cell-based; conditions: MRSE clinical isolate
Description: as §1, §2

K. pneumoniae 9126 = assay: MIC, broth dilution, clinical isolate; type: cell-based; conditions: CRE clinical isolate
Description: as §1, §2

S. capitis 3255 = assay: MIC, broth dilution, clinical isolate; type: cell-based; conditions: MRSC clinical isolate
Description: as §1, §2

A. baumannii 19618 = assay: MIC, broth dilution, clinical isolate; type: cell-based; conditions: CRE/MDR clinical isolate
Description: as §1, §2

E. coli 2678 = assay: MIC, broth dilution, clinical isolate; type: cell-based; conditions: ESBL clinical isolate
Description: as §1, §2

[3] = broth dilution (CLSI), MHB, 5 × 10^5 CFU/mL, 37 °C, 16–20 h, OD630

CC[C@H](C)[C@H](NC(=O)[C@H](C)NC(=O)CNC(=O)[C@@H]1CCCN1C(=O)[C@@H](NC(=O)[C@H](CC(C)C)NC(=O)CNC(=O)[C@H](Cc1c[nH]c2ccccc12)NC(=O)[C@H](CC(C)C)NC(=O)[C@@H](N)Cc1ccccc1)[C@@H](C)CC)C(=O)N[C@@H](CO)C(=O)N[C@@H](C)C(=O)N[C@H](C(=O)N[C@H](C(=O)N[C@@H](CO)C(=O)N[C@@H](CC(C)C)C(=O)N[C@H](C(=O)N[C@@H](CCCCN)C(=O)N[C@@H](CCCCN)C(N)=O)[C@@H](C)CC)[C@@H](C)O)C(C)C [Ctriporin] (H-FLWGLIPGAISAVTSLIKK-NH2; N-terminus assumed)
antimicrobial activity against carbapenem-resistant (CRE) A. baumannii [1]: moderate antimicrobial activity | Hemolysis% at 256 μg/mL [2]: 90.6 ± 11.8% | MICs (A. baumannii 19462; [3]): 16 µg/mL | MICs (A. baumannii 19462; value in parentheses): 8.0 µM | MICs (S. aureus 891; [3]): 16 µg/mL | MICs (S. aureus 891; value in parentheses): 8.0 µM | MICs (S. epidermidis 9092; [3]): 8 µg/mL | MICs (S. epidermidis 9092; value in parentheses): 4.0 µM | MICs (E. faecium 898; [3]): 16 µg/mL | MICs (E. faecium 898; value in parentheses): 8.0 µM | MICs (E. coli 2687; [3]): > 64 µg/mL | MICs (E. coli 2687; value in parentheses): > 31.8 µM | MICs (S. aureus 9124; [3]): 8 µg/mL | MICs (S. aureus 9124; value in parentheses): 4.0 µM | MICs (P. aeruginosa 9014; [3]): > 64 µg/mL | MICs (P. aeruginosa 9014; value in parentheses): > 31.8 µM | MICs (A. baumannii 19295; [3]): 32 µg/mL | MICs (A. baumannii 19295; value in parentheses): 15.9 µM | MICs (S. epidermidis 6943; [3]): 8 µg/mL | MICs (S. epidermidis 6943; value in parentheses): 4.0 µM | MICs (K. pneumoniae 9126; [3]): > 64 µg/mL | MICs (K. pneumoniae 9126; value in parentheses): > 31.8 µM | MICs (S. capitis 3255; [3]): 8 µg/mL | MICs (S. capitis 3255; value in parentheses): 4.0 µM | MICs (A. baumannii 19618; [3]): 32 µg/mL | MICs (A. baumannii 19618; value in parentheses): 15.9 µM | MICs (E. coli 2678; [3]): 64 µg/mL | MICs (E. coli 2678; value in parentheses): 31.8 µM
